Laboratory results published in US20210317102A1, “INHIBITORS OF INTEGRATED STRESS RESPONSE PATHWAY” (Praxis Biotech LLC, priority 2019, published 2021).

Columns and labels:
[1] = test system: ATF4 expression, HEK293T cells carrying the ATF4 luciferase reporter; assay: ATF4 expression inhibition assay (ATF4 luciferase reporter); format: cell-based; conditions: Homo sapiens, HEK-293T, 100 nM thapsigargin, 3 hours
Experimental: The ATF4 reporter was prepared by fusing the human full length 5′UTR of ATF4 (NCBI Accession No. BC022088.2) upstream of the firefly luciferase coding sequence lacking the initiator methionine. The fused sequence was cloned into pLenti-EFla-C-Myc-DDK-IRES-Puro cloning vector (Origen #PS100085) using standard methods. Virus production was carried out by using Lenti-X™ Packaging Single Shots Protocol (Clonetech #631276). Viral particles were used to transduce HEK293T cells (ATCC #CRL-3216, ATCC Manassas, Va.), which were subsequently selected with puromycin to generate stable cell line. Cells were maintained at 37° C. and 5% CO2 in DMEM-F12 (Hyclone #SH30023.02) supplemented with 10% heat-inactivated fetal bovine serum (Gibco #16000-044), 2 mM L-glutamine (Gibco #25030-081), 100 U/ml penicillin, and 100 μg/ml streptomycin (Gibco #^15140-122).
HEK293T cells carrying the ATF4 luciferase reporter were plated on 96-well plates (Nunc) at 10,000 cells per well. Cells were treated two days after seeding with 100 nM thapsigargin (Tg) (Sigma-Aldrich #T9033) in the presence of different concentrations of selected compounds ranging from 1 nM to 10 μM. Cells without treatment or cells treated with Tg alone were used as controls. Assay plates containing cells were incubated for 3 hours at 37° C.
Luciferase reactions were performed using Luciferase Assay System (Promega #E1501) as specified by the manufacturer. Luminescence was read with an integration time of 1 s and a gain of 110 using a Cytation-5 multi-mode microplate reader (BioTek). Relative luminescence units were normalized to Tg treatment (0% inhibition) and untreated cells (100% inhibition) and the percentage of ATF4 inhibition was calculated.
Accordingly, inhibition of ATF4 expression as a result of the test compound indicates suppression of the ISR pathway.

[2] = test system: Chinese hamster ovary (CHO) cells; assay: Protein synthesis assay (puromycin incorporation, western blot); format: cell-based; conditions: 2 hours, media alone = 100%; for activity at 1 µM: Cricetulus griseus, unstressed CHO cells (without Tg), 1 μM test compound, read-out: % Protein synthesis relative to untreated (1 μM test compound); for % Recovery of protein synthesis (1 μM test compound): stressed CHO cells, 300 nM Tg plus 1 μM test compound, Tg alone = 0%
Experimental: Chinese hamster ovary (CHO) cells were maintained at 37° C. and 5% CO2 in Dulbecco's Modified Eagle's Media (DMEM) supplemented with 10% fetal bovine serum, 2 mM L-glutamine, 100 U/ml penicillin, and 100 μg/ml streptomycin. After reaching 80% of confluence, cells were detached and seeded on 6 well plates in complete media, allowed to recover overnight and treated for 2 hours with 1 μM of the test compound (to assess protein synthesis levels in unstressed condition), or for 2 hours with 300 nM Tg in the presence of 1 μM of the test compound (to assess the recovery of protein synthesis in a stressed condition). Cells with Tg alone were used as controls.
After the 2 hours treatments, media were replaced by adding 10 μg/ml puromycin (Sigma Aldrich #P8833) in complete media for 30 min. Media were removed and cells were lysed with SDS-PAGE lysis buffer. Lysates were transferred to 1.5 ml tubes and sonicated for 3 min and total protein amount were quantified using BCA Protein Assay Kit (Pierce). Equal amount of protein (30 μg) was loaded on SDS-PAGE gels. Proteins were transferred onto […] PVDF membranes (BioRad) and probed with primary antibodies diluted in Tris-buffered saline supplemented with 0.1% Tween 20 (Merck #S6996184 505) and 3% bovine serum albumin (Rockland #BSA-50).
Puromycin (12D10) (Merck #MABE343) and j-actin (Sigma Aldrich #A5441) antibodies were used as primary antibody. A HRP-conjugated secondary antibody (Rockland) was employed to detect immune-reactive bands using enhanced chemiluminescence (ECL Western Blotting Substrate, Pierce). Quantification of protein bands was done by densitometry using ImageJ software.
Percent increase of protein synthesis in unstressed cells (without Tg treatment) in the presence of media alone or certain test compounds is shown in Table 3. The percentage levels were normalized to the media alone condition, which correspond to 100% protein synthesis.
Percent recovery of protein synthesis in stressed cells (with Tg treatment) due to the test compounds at 1 μM is also shown in Table 3. The levels were normalized to the media alone and Tg alone conditions, which correspond to 100% and 0% respectively.

| SMILES | IC50 [1] [nM] | activity at 1 µM [2] [%] | % Recovery of protein synthesis (1 μM test compound) [2] [%] |
| --- | --- | --- | --- |
| O=C(COc1ccc(Cl)c(F)c1)N[C@H]1CC[C@H](CNC(=O)c2cccc(Cl)c2)CC1 [Compound 22, trans-3-chloro-N-((4-(2-(4-chloro-3-fluorophenoxy)acetamido)cyclohexyl)methyl)benzamide] | 10.9 | 83.3 | 54.6 |
| O=C(COc1ccc(Cl)c(F)c1)N[C@H]1CC[C@H](CNC(=O)c2ccc(Cl)c(F)c2)CC1 [Compound 23, trans-4-chloro-N-((4-(2-(4-chloro-3-fluorophenoxy)acetamido)cyclohexyl)methyl)-3-fluorobenzamide] | 1.27 | 93 | 74.1 |
| O=C(COc1ccc(Cl)c(F)c1)N[C@H]1CC[C@H](CNC(=O)c2ccc3ccc(Cl)cc3n2)CC1 [Compound 24, trans-7-chloro-N-((4-(2-(4-chloro-3-fluorophenoxy)acetamido)cyclohexyl)methyl)quinoline-2-carboxamide] | > 1000 | 138 | 49.1 |
| O=C(N[C@H]1CC[C@H](CNC(=O)c2cc3cc(Cl)ccc3o2)CC1)c1ccc2cc(Cl)ccc2n1 [Compound 25, trans-6-chloro-N-(4-((5-chlorobenzofuran-2-carboxamido)methyl)cyclohexyl)quinoline-2-carboxamide] | 1.56 | 266 | 223.3 |
| O=C(NC[C@H]1CC[C@H](NC(=O)c2cc3cc(Cl)ccc3o2)CC1)c1cc2cc(Cl)ccc2o1 [Compound 26, trans-5-chloro-N-((4-(5-chlorobenzofuran-2-carboxamido)cyclohexyl)methyl)benzofuran-2-carboxamide] | 0.6 | 173 | 113.4 |
| O=C(NC[C@H]1CC[C@H](NCCOc2ccc(Cl)c(F)c2)CC1)c1cc2cc(Cl)ccc2o1 [Compound 27, trans-5-chloro-N-((4-((2-(4-chloro-3-fluorophenoxy)ethyl)amino)cyclohexyl)methyl)benzofuran-2-carboxamide] | < 1000 | 126 | 38.1 |
| O=C(NC[C@H]1CC[C@H](NC(=O)COc2ccc(Cl)c(F)c2)CC1)Nc1ccc(Cl)cc1 [Compound 28, trans-2-(4-chloro-3-fluorophenoxy)-N-(4-((3-(4-chlorophenyl)ureido)methyl)cyclohexyl)acetamide] | 3.1 | 68 | 28.6 |
| O=C(Cc1ccc(Cl)cc1)NC[C@H]1CC[C@H](NC(=O)COc2ccc(Cl)c(F)c2)CC1 [Compound 29, trans-2-(4-chloro-3-fluorophenoxy)-N-(4-((2-(4-chlorophenyl)acetamido)methyl)cyclohexyl)acetamide] | 12.5 | 70.9 | 1.3 |
| O=C(COc1cccc(Cl)c1)NC[C@H]1CC[C@H](NC(=O)COc2ccc(Cl)c(F)c2)CC1 [Compound 30, trans-2-(4-chloro-3-fluorophenoxy)-N-(4-((2-(3-chlorophenoxy)acetamido)methyl)cyclohexyl)acetamide] | < 1000 | 110 | 0.4 |
| CC(C)(C(=O)NC[C@H]1CC[C@H](NC(=O)COc2ccc(Cl)cc2)CC1)c1ccc(Cl)cc1 [Compound 31, trans-N-((4-(2-(4-chlorophenoxy)acetamido)cyclohexyl)methyl)-2-(4-chlorophenyl)-2-methylpropanamide] | < 1000 | 120 | 66.2 |
| CC(C)(C(=O)NC[C@H]1CC[C@H](NC(=O)COc2ccc(Cl)c(F)c2)CC1)c1ccc(Cl)cc1 [Compound 32, trans-N-((4-(2-(4-chloro-3-fluorophenoxy)acetamido)cyclohexyl)methyl)-2-(4-chlorophenyl)-2-methylpropanamide] | > 1000 | 162 | 69.7 |
| O=C(COc1ccc(Cl)cc1)N[C@H]1CC[C@H](CNC2CCc3cc(Cl)ccc3C2)CC1 (stereo partly drawn) [Compound 33, trans-N-(4-(((6-chloro-1,2,3,4-tetrahydronaphthalen-2-yl)amino)methyl)cyclohexyl)-2-(4-chlorophenoxy)acetamide] | > 1000 | 599 |  |
| O=C(COc1ccc(Cl)cc1)N[C@H]1CC[C@H](NC(=O)C2COc3ccc(Cl)cc3N2)CC1 (stereo partly drawn) [Compound 34, trans-6-chloro-N-(4-(2-(4-chlorophenoxy)acetamido)cyclohexyl)-3,4-dihydro-2H-benzo[b][1,4]oxazine-3-carboxamide] | > 1000 | 137 | 105.2 |
| CN1CC(C(=O)N[C@H]2CC[C@H](NC(=O)COc3ccc(Cl)cc3)CC2)Oc2ccc(Cl)cc21 (stereo partly drawn) [Compound 83, trans-6-chloro-N-(4-(2-(4-chlorophenoxy)acetamido)cyclohexyl)-4-methyl-3,4-dihydro-2H-benzo[b][1,4]oxazine-2-carboxamide] | 19.3 | 148 | 98.4 |
| O=C(Cc1ccc(Cl)cc1)NC[C@H]1CC[C@H](NC(=O)COc2ccc(Cl)cc2)CC1 [Compound 84, trans-2-(4-chlorophenoxy)-N-(4-((2-(4-chlorophenyl)acetamido)methyl)cyclohexyl)acetamide] | 18.3 | 135 | 35.0 |
| CN1C[C@H](C(=O)N[C@H]2CC[C@H](NC(=O)COc3ccc(Cl)cc3)CC2)Oc2ccc(Cl)cc21 [Compound 85, trans-(R)-6-chloro-N-(4-(2-(4-chlorophenoxy)acetamido)cyclohexyl)-4-methyl-3,4-dihydro-2H-benzo[b][1,4]oxazine-2-carboxamide] | 44 | 124 | 31.6 |
| CN1C[C@@H](C(=O)N[C@H]2CC[C@H](NC(=O)COc3ccc(Cl)cc3)CC2)Oc2ccc(Cl)cc21 [Compound 86, trans-(S)-6-chloro-N-(4-(2-(4-chlorophenoxy)acetamido)cyclohexyl)-4-methyl-3,4-dihydro-2H-benzo[b][1,4]oxazine-2-carboxamide] | 12.3 | 125 | 108.1 |
| CCN1CC(C(=O)N[C@H]2CC[C@H](NC(=O)COc3ccc(Cl)cc3)CC2)Oc2ccc(Cl)cc21 (stereo partly drawn) [Compound 87, trans-6-chloro-N-(4-(2-(4-chlorophenoxy)acetamido)cyclohexyl)-4-ethyl-3,4-dihydro-2H-benzo[b][1,4]oxazine-2-carboxamide] | 90.2 | 147 | 71.8 |
| CCN1C[C@H](C(=O)N[C@H]2CC[C@H](NC(=O)COc3ccc(Cl)cc3)CC2)Oc2ccc(Cl)cc21 [Compound 88, trans-(R)-6-chloro-N-(4-(2-(4-chlorophenoxy)acetamido)cyclohexyl)-4-ethyl-3,4-dihydro-2H-benzo[b][1,4]oxazine-2-carboxamide] | > 1000 | 105 | 28.6 |
